{"source": "paper PMC6199744", "about": "“Development of Chemical Proteomics for the Folateome and Analysis of the Kinetoplastid Folateome” (ACS Infectious Diseases, 2018)", "assay_type_in_all_cases": "binding", "key": {"[1]": {"target": "T1, HeLa cell extract proteins (Homo sapiens, UniProt O95372)", "T1 construct": "endogenous in cells; host or cells: HeLa cell extract", "T1 sequence (O95372 whole entry)": "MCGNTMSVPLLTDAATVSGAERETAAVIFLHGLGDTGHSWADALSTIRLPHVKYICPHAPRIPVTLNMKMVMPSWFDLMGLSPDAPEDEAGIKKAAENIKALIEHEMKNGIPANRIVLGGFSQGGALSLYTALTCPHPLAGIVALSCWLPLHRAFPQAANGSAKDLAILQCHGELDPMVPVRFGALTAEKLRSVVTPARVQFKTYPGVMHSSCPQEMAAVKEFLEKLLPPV"}, "[2]": {"target": "T2, HeLa cell extract proteins (Homo sapiens, UniProt P37802)", "T2 construct": "endogenous in cells; host or cells: HeLa cell extract", "T2 sequence (P37802 whole entry)": "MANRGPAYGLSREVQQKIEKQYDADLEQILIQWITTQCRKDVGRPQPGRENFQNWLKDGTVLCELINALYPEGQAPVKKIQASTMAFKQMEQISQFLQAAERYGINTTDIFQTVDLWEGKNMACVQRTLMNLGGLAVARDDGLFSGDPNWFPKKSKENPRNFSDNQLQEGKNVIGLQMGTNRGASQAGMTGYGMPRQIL"}, "[3]": {"target": "T3, HeLa cell extract proteins (Homo sapiens, UniProt P57088)", "T3 construct": "endogenous in cells; host or cells: HeLa cell extract", "T3 sequence (P57088 1-247)": "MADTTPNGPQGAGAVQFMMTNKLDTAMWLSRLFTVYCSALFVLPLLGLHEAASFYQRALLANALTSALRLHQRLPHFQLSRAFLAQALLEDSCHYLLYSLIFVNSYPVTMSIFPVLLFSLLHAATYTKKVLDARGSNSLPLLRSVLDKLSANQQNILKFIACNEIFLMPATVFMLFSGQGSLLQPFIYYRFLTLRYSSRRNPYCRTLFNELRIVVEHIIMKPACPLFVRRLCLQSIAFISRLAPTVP"}, "[4]": {"target": "T4, HeLa cell extract proteins (Homo sapiens, UniProt Q969S8)", "T4 construct": "endogenous in cells; host or cells: HeLa cell extract", "T4 sequence (Q969S8 1-669)": "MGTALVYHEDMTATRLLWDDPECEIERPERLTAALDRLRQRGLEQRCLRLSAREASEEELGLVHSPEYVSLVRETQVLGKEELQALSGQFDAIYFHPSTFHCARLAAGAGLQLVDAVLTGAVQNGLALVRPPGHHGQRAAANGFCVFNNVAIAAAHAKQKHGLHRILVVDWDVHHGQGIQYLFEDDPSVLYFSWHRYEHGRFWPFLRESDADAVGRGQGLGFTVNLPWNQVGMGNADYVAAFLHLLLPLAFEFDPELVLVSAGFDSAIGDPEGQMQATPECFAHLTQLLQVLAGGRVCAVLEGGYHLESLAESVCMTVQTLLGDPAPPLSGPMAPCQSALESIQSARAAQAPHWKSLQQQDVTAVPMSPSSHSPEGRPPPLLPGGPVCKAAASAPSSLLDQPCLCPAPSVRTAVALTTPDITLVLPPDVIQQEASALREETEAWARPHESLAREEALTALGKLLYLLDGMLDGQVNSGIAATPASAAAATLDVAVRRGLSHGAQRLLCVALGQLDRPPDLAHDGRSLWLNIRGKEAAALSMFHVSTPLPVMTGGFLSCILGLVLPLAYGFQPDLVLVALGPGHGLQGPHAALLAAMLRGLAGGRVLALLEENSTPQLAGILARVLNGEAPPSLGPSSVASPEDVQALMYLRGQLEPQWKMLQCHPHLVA"}, "[5]": {"target": "T5, HeLa cell extract proteins (Homo sapiens, UniProt Q9UBM7)", "T5 construct": "endogenous in cells; host or cells: HeLa cell extract", "T5 sequence (Q9UBM7 1-475)": "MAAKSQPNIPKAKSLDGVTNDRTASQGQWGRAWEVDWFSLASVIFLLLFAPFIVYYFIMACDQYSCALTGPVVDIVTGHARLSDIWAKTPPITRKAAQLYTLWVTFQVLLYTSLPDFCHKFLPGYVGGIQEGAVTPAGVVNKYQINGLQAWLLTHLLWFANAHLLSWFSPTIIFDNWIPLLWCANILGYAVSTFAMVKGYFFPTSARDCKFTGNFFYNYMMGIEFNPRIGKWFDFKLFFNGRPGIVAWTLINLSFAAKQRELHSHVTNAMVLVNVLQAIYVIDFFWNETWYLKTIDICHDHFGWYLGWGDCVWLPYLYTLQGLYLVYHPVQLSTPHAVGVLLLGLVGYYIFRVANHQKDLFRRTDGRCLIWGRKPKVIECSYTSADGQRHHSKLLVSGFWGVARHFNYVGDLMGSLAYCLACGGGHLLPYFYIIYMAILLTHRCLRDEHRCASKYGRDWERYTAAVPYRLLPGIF"}}, "note": "Where two headings read alike, the source gives them in different places.", "data": [{"smiles": "Nc1nc2cccc(-c3ccccc3)c2n1Cc1ccc(Cl)c(Cl)c1", "note": "[compound 3]", "values": [{"measurement": "fold changes relative to vehicle control", "setting": "[1]; HeLa, protein LYPLA2", "result": 0.97}, {"measurement": "fold changes relative to vehicle control", "setting": "[2]; protein TAGLN2, HeLa", "result": 0.85}, {"measurement": "fold changes relative to vehicle control", "setting": "[3]; captured protein TMEM33, HeLa", "result": 1.14}, {"measurement": "fold changes relative to vehicle control", "setting": "[4]; captured protein HDAC10, HeLa", "result": 0.9}, {"measurement": "fold changes relative to vehicle control", "setting": "[5]; captured protein DHCR7, HeLa", "result": 1.02}]}, {"smiles": "Nc1nc2[nH]cc(CCc3ccc(C(=O)N[C@@H](CCC(=O)O)C(=O)O)cc3)c2c(=O)[nH]1", "note": "[PTX, pemetrexed]", "values": [{"measurement": "fold changes relative to vehicle control", "setting": "[1]", "result": 0.99}, {"measurement": "fold changes relative to vehicle control", "setting": "[2]", "result": 1.18}, {"measurement": "fold changes relative to vehicle control", "setting": "[3]", "result": 0.96}, {"measurement": "fold changes relative to vehicle control", "setting": "[4]", "result": 0.85}, {"measurement": "fold changes relative to vehicle control", "setting": "[5]", "result": 0.98}]}, {"smiles": "Nc1nc2c(c(=O)[nH]1)N(C=O)C(CNc1ccc(C(=O)N[C@@H](CCC(=O)O)C(=O)O)cc1)CN2", "note": "(some centres unmarked) [LEU, leucovorin]", "values": [{"measurement": "fold changes relative to vehicle control", "setting": "[1]; protein LYPLA2, HeLa", "result": 0.89}, {"measurement": "fold changes relative to vehicle control", "setting": "[2]; HeLa, protein TAGLN2", "result": 0.97}, {"measurement": "fold changes relative to vehicle control", "setting": "[3]; HeLa, protein TMEM33", "result": 0.88}, {"measurement": "fold changes relative to vehicle control", "setting": "[4]; HeLa, protein HDAC10", "result": 0.95}, {"measurement": "fold changes relative to vehicle control", "setting": "[5]; HeLa, captured protein DHCR7", "result": 0.99}]}, {"smiles": "CCCCCCOc1cccc(Cc2cnc(N)nc2N)c1", "note": "[compound 2]", "values": [{"measurement": "fold changes relative to vehicle control", "setting": "[1]; HeLa, protein LYPLA2", "result": 1.19}, {"measurement": "fold changes relative to vehicle control", "setting": "[2]; protein TAGLN2, HeLa", "result": 1.66}, {"measurement": "fold changes relative to vehicle control", "setting": "[3]; captured protein TMEM33, HeLa", "result": 0.93}, {"measurement": "fold changes relative to vehicle control", "setting": "[4]; captured protein HDAC10, HeLa", "result": 0.88}, {"measurement": "fold changes relative to vehicle control", "setting": "[5]; captured protein DHCR7, HeLa", "result": 1.03}]}, {"smiles": "NCCOCCOCC(=O)Nc1nc2ncc(CNc3ccc(C(=O)NC(CCC(=O)O)C(=O)O)cc3)nc2c(=O)[nH]1", "note": "(centres unmarked) [compound 6]", "values": [{"measurement": "fold changes relative to vehicle control", "setting": "[1]; protein LYPLA2, HeLa", "result": 1.09}, {"measurement": "fold changes relative to vehicle control", "setting": "[2]; HeLa, protein TAGLN2", "result": 1.2}, {"measurement": "fold changes relative to vehicle control", "setting": "[3]; HeLa, protein TMEM33", "result": 1}, {"measurement": "fold changes relative to vehicle control", "setting": "[4]; HeLa, protein HDAC10", "result": 0.82}, {"measurement": "fold changes relative to vehicle control", "setting": "[5]; HeLa, captured protein DHCR7", "result": 0.96}]}, {"smiles": "CCCCCCOc1ccc(Cc2cnc(N)nc2N)cc1", "note": "[compound 1]", "values": [{"measurement": "fold changes relative to vehicle control", "setting": "[1]; HeLa, protein LYPLA2", "result": 0.82}, {"measurement": "fold changes relative to vehicle control", "setting": "[2]; protein TAGLN2, HeLa", "result": 1.17}, {"measurement": "fold changes relative to vehicle control", "setting": "[3]; captured protein TMEM33, HeLa", "result": 0.86}, {"measurement": "fold changes relative to vehicle control", "setting": "[4]; captured protein HDAC10, HeLa", "result": 0.82}, {"measurement": "fold changes relative to vehicle control", "setting": "[5]; captured protein DHCR7, HeLa", "result": 0.95}]}, {"smiles": "NCCCNc1ccc(C(=O)NC(CCC(=O)O)C(=O)O)cc1", "note": "(centres unmarked) [compound 7]", "values": [{"measurement": "fold changes relative to vehicle control", "setting": "[1]; protein LYPLA2, HeLa", "result": 1.01}, {"measurement": "fold changes relative to vehicle control", "setting": "[2]; HeLa, protein TAGLN2", "result": 0.92}, {"measurement": "fold changes relative to vehicle control", "setting": "[3]; HeLa, protein TMEM33", "result": 1.03}, {"measurement": "fold changes relative to vehicle control", "setting": "[4]; HeLa, protein HDAC10", "result": 0.95}, {"measurement": "fold changes relative to vehicle control", "setting": "[5]; HeLa, captured protein DHCR7", "result": 0.98}]}]}
